Reference: ChEMBL document CHEMBL1671626, “In vitro profiling of ceftaroline against a collection of recent bacterial clinical isolates from across the United States” (2008)

How the values were obtained:
Assay type in all cases: functional
Streptococcus pyogenes [1] = experiment: Antibacterial activity against erythromycin-susceptible Streptococcus pyogenes assessed as resistant isolates by CLSI M7-A7 broth microdilution method
Streptococcus pyogenes [2] = experiment: Antibacterial activity against erythromycin-nonsusceptible Streptococcus pyogenes assessed as resistant isolates by CLSI M7-A7 broth microdilution method
Streptococcus agalactiae [3] = experiment: Antibacterial activity against erythromycin-susceptible Streptococcus agalactiae assessed as resistant isolates by CLSI M7-A7 broth microdilution method
Streptococcus agalactiae [4] = experiment: Antibacterial activity against erythromycin-nonsusceptible Streptococcus agalactiae assessed as resistant isolates by CLSI M7-A7 broth microdilution method
Streptococcus viridans [5] = experiment: Antibacterial activity against penicillin-nonsusceptible Streptococcus viridans assessed as susceptible isolates by CLSI M7-A7 broth microdilution method
Streptococcus viridans [6] = experiment: Antibacterial activity against penicillin-nonsusceptible Streptococcus viridans assessed as resistant isolates by CLSI M7-A7 broth microdilution method
Enterococcus faecalis [7] = experiment: Antibacterial activity against vancomycin-susceptible Enterococcus faecalis assessed as susceptible isolates by CLSI M7-A7 broth microdilution method
Enterococcus faecalis [8] = experiment: Antibacterial activity against vancomycin-susceptible Enterococcus faecalis assessed as resistant isolates by CLSI M7-A7 broth microdilution method
Enterococcus faecalis [9] = experiment: Antibacterial activity against vancomycin-resistant Enterococcus faecalis assessed as susceptible isolates by CLSI M7-A7 broth microdilution method
Enterococcus faecalis [10] = experiment: Antibacterial activity against vancomycin-resistant Enterococcus faecalis assessed as resistant isolates by CLSI M7-A7 broth microdilution method
Enterococcus faecium [11] = experiment: Antibacterial activity against vancomycin-resistant Enterococcus faecium assessed as susceptible isolates by CLSI M7-A7 broth microdilution method
Enterococcus faecium [12] = experiment: Antibacterial activity against vancomycin-resistant Enterococcus faecium assessed as resistant isolates by CLSI M7-A7 broth microdilution method

SMILES | Activity (Streptococcus pyogenes [1]) | Activity (Streptococcus pyogenes [2]) | Activity (Streptococcus agalactiae [3]) | Activity (Streptococcus agalactiae [4]) | Activity (Streptococcus viridans [5]) | Activity (Streptococcus viridans [6]) | Activity (Enterococcus faecalis [7]) | Activity (Enterococcus faecalis [8]) | Activity (Enterococcus faecalis [9]) | Activity (Enterococcus faecalis [10]) | Activity (Enterococcus faecium [11]) | Activity (Enterococcus faecium [12])
C[C@H]1COc2c(N3CCN(C)CC3)c(F)cc3c(=O)c(C(=O)O)cn1c23.C[C@H]1COc2c(N3CCN(C)CC3)c(F)cc3c(=O)c(C(=O)O)cn1c23.O [LEVOFLOXACIN] | 0% | 0% | 0% | 2.4% | 92.9% | 7.1% | 59.2% | 40.8% | 4% | 96% | 0% | 100%
CO/N=C(\C(=O)N[C@@H]1C(=O)N2C(C(=O)O)=C(CSc3nc(=O)c(O)nn3C)CS[C@H]12)c1csc(N)n1 [CEFTRIAXONE] | – | – | – | – | 28.6% | – | – | – | – | – | – | –
